Some test systems named below: U251 CNS; ACHN renal; MOLT-4 leukemia; OVCAR-4 ovarian; KM12 colon; EKVX NSCLC; UACC-62 melanoma; LOX IMVI melanoma; HS 578T breast; SNB-75 CNS.
Holding throughout (test): NCI tumour cell line growth inhibition, 48 h

SMILES strings stand for the structures.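 Compound exposure: 48 hours, 5 concentrations, 96-well plates. GI50: concentration for 50% inhibition of growth. At the TGI there is no net growth.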 Bounds are passed on as bounds.

For `Cc1cc(S(N)(=O)=O)c(S/C(=N\NS(=O)(=O)c2ccc(Cl)cc2)c2ccc(Cl)cc2)cc1Cl`, the GI50 with U251 CNS is 62.8 µM; in the assay with ACHN renal, 38.6 µM; with MOLT-4 leukemia, 8.12 µM; with OVCAR-4 ovarian it was greater than 100 µM; in the assay with KM12 colon, 70.6 µM; in the assay on EKVX NSCLC, greater than 100 µM. Further, the GI50 with UACC-62 melanoma is greater than 100 µM; with LOX IMVI melanoma, greater than 100 µM; with HS 578T breast, 79.7 µM. Besides, the TGI in the assay on U251 CNS, in the assay with ACHN renal, in the assay on MOLT-4 leukemia, with OVCAR-4 ovarian, in the assay with KM12 colon and in the assay on EKVX NSCLC was greater than 100 µM each time. Also, the TGI with UACC-62 melanoma, with LOX IMVI melanoma and in the assay on HS 578T breast was greater than 100 µM each time.

Consider `CCC(=O)O[C@@H]1C2C(OC(C)=O)C34COC(C)([C@@H]3C3C(C[C@]3(C)OC(C)=O)[C@@H](OC(=O)c3ccccc3)C4=O)[C@H](OC(C)=O)[C@@]2(OC(C)=O)C[C@@H]1C` (stereo partly specified), for which the TGI was 46 µM with U251 CNS; greater than 100 µM in the assay with ACHN renal; 12.4 µM in the assay on SNB-75 CNS; greater than 100 µM with MOLT-4 leukemia; 44.7 µM in the assay on OVCAR-4 ovarian; greater than 100 µM in the assay on KM12 colon. The TGI in the assay on EKVX NSCLC, in the assay with UACC-62 melanoma and in the assay on LOX IMVI melanoma was greater than 100 µM in each case.

Take `Cc1ccccc1NC(=O)c1[nH]c(=S)nc(N)c1-c1ccccc1C`: the TGI in the assay on U251 CNS was greater than 100 µM; with ACHN renal, greater than 100 µM; in the assay on SNB-75 CNS, 76.1 µM; in the assay with MOLT-4 leukemia, greater than 100 µM; with OVCAR-4 ovarian it was greater than 100 µM; with KM12 colon, greater than 100 µM. For the same compound, the TGI in the assay with EKVX NSCLC, in the assay with UACC-62 melanoma and in the assay with LOX IMVI melanoma was greater than 100 µM in each case.

`C/C=C/C1(NS(=O)(=O)c2ccc(C)cc2)CCC(C(C)(C)C)CC1` (stereo unspecified): the TGI in the assay with U251 CNS is 29.5 µM; with ACHN renal, greater than 100 µM; in the assay on SNB-75 CNS, greater than 100 µM; in the assay with MOLT-4 leukemia, 39.9 µM; in the assay on OVCAR-4 ovarian, 48.4 µM; in the assay on KM12 colon, 39 µM. Also, the results for the TGI with EKVX NSCLC and in the assay with UACC-62 melanoma were 64.5 µM and 37.4 µM, respectively.

On to `COC(=O)/C(C#N)=C1\N=NNN1CCCc1ccccc1`, for which the TGI in the assay on U251 CNS, in the assay on ACHN renal, in the assay with SNB-75 CNS, with MOLT-4 leukemia, in the assay on KM12 colon and in the assay with EKVX NSCLC was greater than 100 µM in each case. The TGI in the assay on UACC-62 melanoma and in the assay with LOX IMVI melanoma was greater than 100 µM throughout.

Consider `COc1nc2c(nc(N)n2C2OC(CO)C(O)C(O)C2O)c(=O)n1C` (stereo unspecified), for which the TGI in the assay with U251 CNS, in the assay with ACHN renal, in the assay on SNB-75 CNS, in the assay with OVCAR-4 ovarian, in the assay on KM12 colon and in the assay on EKVX NSCLC was greater than 100 µM in each case. The TGI with UACC-62 melanoma and in the assay with LOX IMVI melanoma was greater than 100 µM in each case.

For the compound `CCCNc1nc(-c2ccc(OC)cc2)nc2ccccc12`, the GI50 in the assay on U251 CNS is 16.7 µM; in the assay on ACHN renal it was 15.8 µM; in the assay with MOLT-4 leukemia it was 46.4 µM; in the assay with OVCAR-4 ovarian, 41 µM; with KM12 colon it was 14.6 µM; in the assay with UACC-62 melanoma, 15.4 µM. The GI50 is 18.4 µM with LOX IMVI melanoma and 17.9 µM with HS 578T breast. For the same compound, the TGI in the assay with U251 CNS was 37.8 µM; with ACHN renal, 33.3 µM; in the assay on MOLT-4 leukemia it was greater than 100 µM; in the assay on OVCAR-4 ovarian, greater than 100 µM; in the assay with KM12 colon, 30.8 µM; with UACC-62 melanoma, 35.5 µM. Besides, the results for the TGI in the assay with LOX IMVI melanoma and in the assay with HS 578T breast were 37.5 µM and 42.9 µM, respectively.

With `Cc1cc2c(=O)cc(-c3ccc(Cl)cc3)oc2c(C(=O)O)c1C`, the TGI in the assay with U251 CNS, in the assay on ACHN renal, in the assay on SNB-75 CNS, in the assay on MOLT-4 leukemia, in the assay with OVCAR-4 ovarian and in the assay with KM12 colon was greater than 100 µM each time. The TGI in the assay with EKVX NSCLC, with UACC-62 melanoma and in the assay with LOX IMVI melanoma was greater than 100 µM in each case.

`N#Cc1c2ccccc2c2nnc3cc(Cl)c(Cl)cc3n12`: the GI50 in the assay with U251 CNS was 50.7 µM; in the assay on ACHN renal, 19.9 µM; in the assay with SNB-75 CNS, 71.7 µM; in the assay on MOLT-4 leukemia it was 27.4 µM; in the assay on OVCAR-4 ovarian it was 40.8 µM; in the assay with KM12 colon, greater than 100 µM. In addition, the GI50 in the assay with EKVX NSCLC was 48.6 µM; in the assay with UACC-62 melanoma, 62.1 µM; with LOX IMVI melanoma it was 59.3 µM. Moreover, the TGI was greater than 100 µM in the assay on U251 CNS; 52.8 µM with ACHN renal; greater than 100 µM with SNB-75 CNS; greater than 100 µM in the assay with MOLT-4 leukemia; greater than 100 µM in the assay on OVCAR-4 ovarian; greater than 100 µM in the assay with KM12 colon. Moreover, the TGI in the assay on EKVX NSCLC, with UACC-62 melanoma and in the assay on LOX IMVI melanoma was greater than 100 µM in each case.

As for `Cc1cc(Cl)ccc1N1C(=O)C(=O)C(c2nc3ccccc3s2)C(=O)C1=O`, the TGI in the assay with U251 CNS, in the assay on ACHN renal, in the assay with SNB-75 CNS, in the assay on MOLT-4 leukemia, in the assay with OVCAR-4 ovarian and with KM12 colon was greater than 100 µM throughout. Also, the TGI in the assay with EKVX NSCLC and in the assay on UACC-62 melanoma was greater than 100 µM in each case.

As to `CC1=C(C)C(=O)C(C(C)C2=C(C)C(=O)C(C)=C(C)C2=O)=C(C)C1=O`, the GI50 was 21.7 µM in the assay on U251 CNS; 24.5 µM in the assay with ACHN renal; 8.88 µM in the assay with MOLT-4 leukemia; 40 µM with KM12 colon; 32.6 µM in the assay on EKVX NSCLC; 19.3 µM in the assay on UACC-62 melanoma. In addition, the GI50 in the assay with LOX IMVI melanoma was 19 µM; with HS 578T breast it was 29.2 µM. For the same compound, the TGI is greater than 100 µM in the assay on U251 CNS; greater than 100 µM with ACHN renal; 27.6 µM in the assay with MOLT-4 leukemia; greater than 100 µM with KM12 colon; greater than 100 µM in the assay with EKVX NSCLC; greater than 100 µM in the assay with UACC-62 melanoma. Also, the TGI in the assay with LOX IMVI melanoma and in the assay on HS 578T breast was greater than 100 µM each time.

Consider `COc1ccccc1NC(=O)C1=C(C)NC(C)=C(C(=O)Nc2ccccc2OC)C1c1ccc(C(C)C)cc1`, for which the TGI in the assay on U251 CNS, in the assay on ACHN renal, in the assay on SNB-75 CNS, with MOLT-4 leukemia, in the assay with OVCAR-4 ovarian and with KM12 colon was greater than 100 µM in each case. Further, the TGI with EKVX NSCLC, in the assay with UACC-62 melanoma and in the assay with LOX IMVI melanoma was greater than 100 µM in each case.

(Values after PubChem BioAssay (NCI).)
